The values below are quoted from earlier work in patent US20130344444A1, “PROCESS FOR MAKING LITHOGRAPHIC PRINTING PLATE” (FUJIFILM Corporation, priority 2011, published 2013).

Take `CCCCC(CC)COCCOCCO` (stereo not drawn) [Diethylene glycol mono-2-ethylhexyl ether]: the solubility in water was 0.3 g/100 mL of water.
With `CCCCOCC(C)O` (stereo not drawn) [Propylene glycol mono-n-butyl ether], the solubility in water is given as 4.4 g/100 mL of water.
As for `CCCCCCOCCO` [Ethylene glycol mono-n-hexyl ether], the solubility in water is 1.0 g/100 mL of water.
On to `OCCOc1ccccc1` [Ethyleneglycol monophenyl ether, reference compound], for which the solubility in water is listed as 2.7 g/100 mL of water.
Turning to `CC(C)(C)OCCO` [Ethylene glycol mono-t-butyl ether], the “solubility in water (in words)” value was “mutually mixing”.
On to `OCc1ccccc1` [Benzyl alcohol, reference compound], for which the solubility in water is 4.0 g/100 mL of water.
